These results are taken from patent publication US12186401B2, “Amide-based proteolysis modulators of B-rapidly accelerated fibrosarcoma (BRAF) and associated uses” (Ontario Institute for Cancer Research (OICR), priority 2019, dated 2025).

One assay concerns the target BRAF (Homo sapiens, UniProt P15056). As to the kind of experiment: Kinase inhibition assay BRAF (similar protocol). It counts as biochemical. The method, then:
(§1) b-Raf (V599E) (h) was incubated with 25 mM Tris/HCl pH 7.5, 0.2 mM EGTA, 10 mM DTT, 0.01% Triton X-100, 0.5 mM, sodium orthovandate, 0.5 mM […], 1% glycerol, 34 nM unactive MEK1, 69 nM unactive MAPK2, 0.5 mg/mL myelin basic protein, and 10 mM Magnesium acetate and […] (specific activity and concentration as required). The reaction was initiated by the addition of the Mg/ATP mix. After incubation for 40 minutes at room temperature, the reaction was stopped by the addition of phosphoric acid to a concentration of 0.5%. 10 μL of the reaction was then spotted onto a P30 filtermat and washed four times for 4 minutes in 0.425% phosphoric acid and once in methanol prior to drying and scintillation counting. Similar protocols were used for other kinase assays employing the kinase of interest to generate the data in Table 1.

For the next assay, the target named is T1, BRAF^V600E (Homo sapiens, UniProt P15056, V600E).
T1 construct: A375 or SK-Mel-28 cells were obtained from ATCC; host or cells: A375 or SK-Mel-28
In words: Cellular degradation assay, Western blot of BRAF^V600E. Format: cell-based. The method, then: (§2) Cell culture and compound treatment: A375 or SK-Mel-28 cells were obtained from ATCC and cultured in Dulbecco's Modified Eagle Media (DMEM) supplemented with 10% FBS, penicillin and streptomycin, at 37° C., 5% CO2. Cells grown in 6-well plates were treated for 24 hours with test compounds (solubilized in DMSO) or 0.1% DMSO vehicle control. Cells were harvested by first washing with 1× phosphate-buffered saline (PBS), then scrapping into 1 ml of PBS supplemented with 1 mM phenylmethylsulfonylflouride (PMSF). Cell pellets were obtained after a centrifugation at 300-350×g for 2 min, and immediately snap frozen in liquid nitrogen.
(§3) Cell lysis and Western blot analysis: Cell pellets were thawed and lysed by pipetting in lysis buffer (50 mM HEPES (pH 7.4), 150 mM NaCl, 5 mM EDTA, 0.5% NP-40, 5 mM NaF, 10% glycerol), with Roche protease inhibitor cocktail (5056489001) and phosphatase inhibitor cocktail PhosStop (4906845001) added fresh before use. The whole cell lysate was clarified by centrifugation at 15,000-20,000×g for 20 min and supernatant was collected. Total protein concentration in the clarified lysate was determination by Bradford assay (Bio-Rad), and 30-50 ug of protein was separated through SDS-PAGE, transferred onto nitrocellulose membrane and subject to standard immunoblotting protocol. Band intensities were quantified by Bio-Rad Image Lab software. Antibodies to B-Raf (sc-5284), A-Raf (sc-166771), phosphor MEK1/2, pS218/222 (sc-7995), phosphor ERK1/2 (sc-7383) were purchased from Santa Cruz; C-Raf (9422), MEK1/2 (9122), ERK1/2 (9102) from Cell Signaling; p27 (610242) from BD Biosciences. Antibody to the loading control α-tubulin was obtained from Sigma-Aldrich (6199).
(In general: A western blot detects proteins with antibodies after separation by electrophoresis.)

In the next assay the target is B-Raf (V600E) (h) (Homo sapiens, UniProt P15056, V600E). In words: Kinase inhibition assay B-Raf (V600E) (h), radiometric 33P-ATP filter assay. Format: biochemical. Conditions: read-out: IC50(nM) BRAF^V600E. The method, then:
as §1

Assay [1] addresses T2, CRAF (Homo sapiens, UniProt P04049). In words: Cellular degradation assay, Western blot of CRAF. On the set-up: host or cells: A375. The conditions noted are these: A375 human melanoma cells, 24 hrs; negative control 100 nM, PROTAC 0 to 4000 nM. It counts as cell-based. The method, then:
as §2
as §3, with “Antibodies to B-Raf (sc-5284), A-Raf (sc-166771), phosphor MEK1/2, pS218/222 (sc-7995), phosphor ERK1/2 (sc-7383) were purchased from Santa Cruz; C-Raf (9422), MEK1/2 (9122), ERK1/2 (9102) from Cell Signaling; p27 (610242) from BD Biosciences. Antibody to the loading control α-tubulin was obtained from Sigma-Aldrich (6199).” left out

In assay [2] the target is T3, ARAF (Homo sapiens, UniProt P10398).
T3 sequence (P10398 1-606): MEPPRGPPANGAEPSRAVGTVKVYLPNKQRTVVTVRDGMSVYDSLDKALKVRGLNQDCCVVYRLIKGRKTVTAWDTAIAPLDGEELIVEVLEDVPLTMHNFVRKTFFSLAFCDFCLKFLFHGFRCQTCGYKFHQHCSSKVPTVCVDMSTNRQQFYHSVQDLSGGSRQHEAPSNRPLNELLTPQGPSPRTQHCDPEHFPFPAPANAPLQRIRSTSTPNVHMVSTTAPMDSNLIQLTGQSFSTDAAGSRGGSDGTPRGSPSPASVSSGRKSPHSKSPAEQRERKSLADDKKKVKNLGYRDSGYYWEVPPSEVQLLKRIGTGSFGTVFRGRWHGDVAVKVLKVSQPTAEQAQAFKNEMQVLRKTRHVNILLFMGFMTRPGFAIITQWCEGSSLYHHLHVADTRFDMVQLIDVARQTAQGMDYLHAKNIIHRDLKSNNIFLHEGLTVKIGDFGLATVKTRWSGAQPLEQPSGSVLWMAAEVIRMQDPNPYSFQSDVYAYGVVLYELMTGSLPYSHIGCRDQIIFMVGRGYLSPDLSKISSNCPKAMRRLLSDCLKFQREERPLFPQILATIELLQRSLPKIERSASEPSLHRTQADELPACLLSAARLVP
As to the kind of experiment: Cellular degradation assay, Western blot of ARAF. It counts as cell-based. On the set-up: host or cells: A375. Conditions: A375 human melanoma cells, 24 hrs; negative control 100 nM, PROTAC 0 to 4000 nM. The method, then:
as §2
as §3, with “Antibodies to B-Raf (sc-5284), A-Raf (sc-166771), phosphor MEK1/2, pS218/222 (sc-7995), phosphor ERK1/2 (sc-7383) were purchased from Santa Cruz; C-Raf (9422), MEK1/2 (9122), ERK1/2 (9102) from Cell Signaling; p27 (610242) from BD Biosciences. Antibody to the loading control α-tubulin was obtained from Sigma-Aldrich (6199).” left out

For assay [3], the system named is MEK and ERK kinase phosphorylation. In words: Immunoblot of downstream MEK and ERK kinase phosphorylation in A375 cells. It counts as cell-based. Conditions: A375 human melanoma cells, 24 hrs. The protocol: as §2
as §3, with “Antibodies to B-Raf (sc-5284), A-Raf (sc-166771), phosphor MEK1/2, pS218/222 (sc-7995), phosphor ERK1/2 (sc-7383) were purchased from Santa Cruz; C-Raf (9422), MEK1/2 (9122), ERK1/2 (9102) from Cell Signaling; p27 (610242) from BD Biosciences. Antibody to the loading control α-tubulin was obtained from Sigma-Aldrich (6199).” left out

Assay [4] has as its target T2, CRAF. As to the kind of experiment: Kinase inhibition assay CRAF (similar protocol). Format: biochemical. The protocol:
as §1

Assay [5] concerns the target T3, ARAF. As to the kind of experiment: Kinase inhibition assay ARAF (similar protocol). Format: biochemical. The protocol:
as §1

The mark [6] stands for this setting: Table 1, cells treated 24 hours, Western blot.
Where [7] appears, read: Table 1, cells treated 24 hours, Western blot, read-out: DC50(nM) BRAF^V600E.
The mark [8] stands for this setting: A375 human melanoma cells, 24 hrs.

The structures appear in SMILES notation. Like-named read-outs stand apart in the source and are kept apart here.

Sequence of B-Raf (V600E) (h) (P15056 whole entry V600E): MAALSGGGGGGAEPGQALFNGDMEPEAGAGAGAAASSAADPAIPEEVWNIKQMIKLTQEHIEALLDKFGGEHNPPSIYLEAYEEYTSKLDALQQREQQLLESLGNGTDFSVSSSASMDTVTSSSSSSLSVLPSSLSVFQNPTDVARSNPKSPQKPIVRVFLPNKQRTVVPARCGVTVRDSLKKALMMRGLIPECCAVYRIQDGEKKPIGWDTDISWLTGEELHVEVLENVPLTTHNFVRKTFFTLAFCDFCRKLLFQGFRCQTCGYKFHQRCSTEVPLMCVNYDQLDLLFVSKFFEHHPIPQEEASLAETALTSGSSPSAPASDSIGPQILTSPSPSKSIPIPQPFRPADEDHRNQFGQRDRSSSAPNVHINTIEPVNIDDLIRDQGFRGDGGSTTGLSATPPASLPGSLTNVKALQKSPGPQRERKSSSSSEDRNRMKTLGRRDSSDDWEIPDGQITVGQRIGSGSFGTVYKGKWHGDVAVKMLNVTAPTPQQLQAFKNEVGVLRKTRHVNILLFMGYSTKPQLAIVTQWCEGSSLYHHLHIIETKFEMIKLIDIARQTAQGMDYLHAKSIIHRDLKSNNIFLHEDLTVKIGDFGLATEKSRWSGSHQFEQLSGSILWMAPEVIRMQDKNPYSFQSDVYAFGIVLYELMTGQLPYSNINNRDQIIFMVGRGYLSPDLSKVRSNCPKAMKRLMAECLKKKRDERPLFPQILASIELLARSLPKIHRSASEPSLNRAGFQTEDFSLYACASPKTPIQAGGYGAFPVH
T1 sequence (P15056 whole entry V600E): as above
T2 sequence (P04049 whole entry): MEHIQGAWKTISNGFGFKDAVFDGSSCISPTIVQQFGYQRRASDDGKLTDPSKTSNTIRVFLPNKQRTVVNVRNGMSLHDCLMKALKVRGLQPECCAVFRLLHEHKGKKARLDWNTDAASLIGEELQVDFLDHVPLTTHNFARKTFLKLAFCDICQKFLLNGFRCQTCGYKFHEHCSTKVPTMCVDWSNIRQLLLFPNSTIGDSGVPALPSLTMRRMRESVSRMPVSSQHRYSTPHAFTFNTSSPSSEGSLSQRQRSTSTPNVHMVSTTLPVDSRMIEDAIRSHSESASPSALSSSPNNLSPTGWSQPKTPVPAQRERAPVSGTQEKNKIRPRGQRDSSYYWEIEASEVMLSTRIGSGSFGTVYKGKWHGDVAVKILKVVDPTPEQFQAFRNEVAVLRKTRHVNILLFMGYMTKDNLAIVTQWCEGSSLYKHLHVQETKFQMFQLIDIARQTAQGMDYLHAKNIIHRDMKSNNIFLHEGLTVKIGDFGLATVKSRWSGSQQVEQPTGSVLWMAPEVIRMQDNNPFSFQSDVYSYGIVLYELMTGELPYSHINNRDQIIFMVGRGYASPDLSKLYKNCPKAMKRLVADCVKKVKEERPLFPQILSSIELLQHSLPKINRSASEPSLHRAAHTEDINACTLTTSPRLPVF
Sequence of BRAF (P15056 whole entry): as the sequence (P15056 whole entry V600E) above, with E600V counted along it

The term IC50 denotes the concentration at which inhibition is half-maximal. The DC50 is the midpoint of the concentration-degradation curve. `CCCS(=O)(=O)Nc1ccc(F)c(-n2cc(-c3cncnc3)c3nc(N(C)C4CCN(C(=O)CCOCCOCCOCCOCCNc5cccc6c5C(=O)N(C5CCC(=O)NC5=O)C6=O)CC4)ccc32)c1F` (stereo not shown) [Entry 17, N-(3-(5-((1-(1-((2-(2,6-dioxopiperidin-3-yl)-1,3-dioxoisoindolin-4-yl)amino)-3,6,9,12-tetraoxapentadecan-15-oyl)piperidin-4-yl)(methyl)amino)-3-(pyrimidin-5-yl)-1H-pyrrolo[3,2-b]pyridin-1-yl)-2,4-difluorophenyl)propane-1-sulfonamide]: the IC50 came out at 58 nM on BRAF; 12 nM at B-Raf (V600E) (h); 20 nM in assay [3] (A-375, read-out: BRAF^V600E IC50, inhibition of downstream MEK and ERK kinase phosphorylation, 0 to 4000 nM); 167 nM at CRAF [4]; 2220 nM against ARAF [5]. In addition, on BRAF^V600E (A375 human melanoma cells, 24 hrs, 0 to 4000 nM), the “DCmax, degradation of BRAF^V600E kinase (FIG. 3C)” value worked out at 80%. For the same compound, the DC50 on BRAF^V600E (A375 human melanoma cells, 24 hrs, 0 to 4000 nM, read-out: DC50, degradation of BRAF^V600E kinase (FIG. 3C)) came out at 20 nM; at BRAF^V600E (setting [7]), 15 nM. Moreover, the “DCmax(%) BRAF^V600E” value at BRAF^V600E (setting [6]) was 82%. Also, on CRAF [1], the “degradation activity on CRAF (FIG. 3C)” value is “not ARAF and CRAF”. Moreover, on ARAF [2], the “degradation activity on ARAF (FIG. 3C)” value is “not ARAF and CRAF”. Further, in assay [3] (negative control 100 nM, PROTAC 0 to 4000 nM), the “inhibition of downstream MEK and ERK kinase phosphorylation (FIG. 3C)” value is “inhibition of downstream MEK and ERK kinase phosphorylation”.
Turning to `CCCS(=O)(=O)Nc1ccc(F)c(-n2cc(-c3cncnc3)c3nc(N(C)C4CCN(C(=O)CCOCCOCCOCCOCCOCCNc5cccc6c5C(=O)N(C5CCC(=O)NC5=O)C6=O)CC4)ccc32)c1F` (stereo not shown) [Entry 18, N-(3-(5-((1-(1-((2-(2,6-dioxopiperidin-3-yl)-1,3-dioxoisoindolin-4-yl)amino)-3,6,9,12,15-pentaoxaoctadecan-18-oyl)piperidin-4-yl)(methyl)amino)-3-(pyrimidin-5-yl)-1H-pyrrolo[3,2-b]pyridin-1-yl)-2,4-difluorophenyl)propane-1-sulfonamide], the IC50 on BRAF turned out to be 66 nM; on B-Raf (V600E) (h) it was 25 nM; against CRAF [4] it was 223 nM; against ARAF [5], 3620 nM. Further, on BRAF^V600E (setting [8]), the “degradation of BRAF^V600E by immunoblot (FIGS. 4 and 5)” value is “Degradation of BRAF^V600E was observed”. Further, at BRAF^V600E (setting [6]), the “DCmax(%) BRAF^V600E” value came out at 73%. Further, the DC50 on BRAF^V600E (setting [7]) worked out at 50 nM.
In the case of `CCCS(=O)(=O)Nc1ccc(F)c(-n2cc(-c3cncnc3)c3nc(N(C)C4CCN(C(=O)CCC(=O)NCCCOCCOCCOCCCNc5cccc6c5C(=O)N(C5CCC(=O)NC5=O)C6=O)CC4)ccc32)c1F` (stereo not shown) [Entry 21, 4-(4-((1-(2,6-Difluoro-3-(propylsulfonamido)phenyl)-3-(pyrimidin-5-yl)-1H-pyrrolo[3,2-b]pyridin-5-yl)(methyl)amino)piperidin-1-yl)-N-(3-(2-(2-(3-((2-(2,6-dioxopiperidin-3-yl)-1,3-dioxoisoindolin-4-yl)amino)propoxy)ethoxy)ethoxy)propyl)-4-oxobutanamide], on BRAF^V600E (setting [8]), the “degradation of BRAF^V600E by immunoblot (FIGS. 4 and 5)” value is “Degradation of BRAF^V600E was observed”. Besides, the “DCmax(%) BRAF^V600E” value at BRAF^V600E (setting [6]) is on record as 29%. For the same compound, the DC50 at BRAF^V600E (setting [7]) worked out at 20 nM. In addition, the half-inhibitory concentration (IC50) was 82 nM at B-Raf (V600E) (h), 468 nM against CRAF [4] and 3340 nM against ARAF [5].
